Tested on: ROS17/2.8 cells
Assay: Cell growth of ROS17/2.8 cells by the MTT method (formed formazan)
Type: cell-based, rat
Settings: for activity at 0.02 µM: Rattus norvegicus, 2×10^−5M Test Compound solution diluted 1000 fold, read-out: Amount of formed formazan, Solution 8 (Test Compound alone); for activity at 0.02 µM / Amount of formed formazan, Solution 10 (a group of a drug combination): percentage to Solution 7 addition group, about 48 hours, average ± standard deviation of four wells; for Relative index of Solution 10 (a group of a drug combination) / Amount of formed formazan, Solution 10 (a group of a drug combination): Test Compound in combination with 1α,25-dihydroxyvitamin D3; for Relative index of Solution 10 (a group of a drug combination) / Relative index of Solution 8 (Test Compound alone): amount of formed formazan, Solution 7 = 1.00
Experimental: 100 μL of a 10% FCS-αMEM comprising either DMSO and ethanol (referred to as Solution 7, hereinafter), a Test Compound solution and ethanol (referred to as Solution 8, hereinafter), a 1α,25-dihydroxyvitamin D3 solution and DMSO (referred to as Solution 9, hereinafter) or a Test Compound solution and the 1α,25-dihydroxyvitamin D3 solution (referred to as Solution 10, hereinafter) was dispensed. The ROS17/2.8 cells were inoculated to a medium at a density of 5×10^3 cells/100 μL/well. After culture of the cells for about 48 hours, the effect of Test Compound and 1α,25-dihydroxyvitamin D3 on the cell growth of the ROS17/2.8 cells was evaluated using the MTT method. Namely, after culture of the cells for about 44 hours, an MTT solution (3-[4,5-dimethylthiazol-2-yl]-2,5-diphenyltetrazolium bromide 2 mg/mL) was added in an amount of 25 μL/well, and the cells were further cultured for four hours. After the medium was removed, DMSO was added in an amount of 100 μL/well so as to dissolve the formed formazan. The amount of the formed formazan was determined by measuring the absorbance (at 560 nm) of the solution by a microplate reader.
The 10% FCS-αMEM comprising Solution 7 was prepared by diluting DMSO by 1000 fold with the 10% FCS-αMEM, and diluting ethanol by 10000 fold with the 10% FCS-αMEM. The 10% FCS-αMEM comprising Solution 8 was prepared by diluting a 2×10^−5M Test Compound solution by 1000 fold with the 10% FCS-αMEM, and diluting ethanol by 10000 fold with the 10% FCS-αMEM. The 10% FCS-αMEM comprising Solution 9 was prepared by diluting 2×10^−3M 1α,25-dihydroxyvitamin D3 solution by 10000 fold with the 10% FCS-αMEM, and diluting DMSO by 1000 fold with the 10% FCS-αMEM. The 10% FCS-αMEM comprising Solution 10 was prepared by diluting a 2×10^−5M Test Compound solution by 1000 fold with the 10% FCS-αMEM, and diluting 2×10^−3M 1α,25-dihydroxyvitamin D3 solution by 10000 fold with the 10% FCS-αMEM.
The amount of the formed formazan in each solution addition group was obtained in terms of a percentage to the average value of the amounts of formed formazan in four wells in a Solution 7 addition group. All the determined values were shown in terms of the average value±standard deviation of the four wells of each solution addition group.

Structure (SMILES) | activity at 0.02 µM [%] | Relative index of Solution 10 (a group of a drug combination) | Amount of formed formazan, Solution 10 (a group of a drug combination) | Relative index of Solution 8 (Test Compound alone)
Cc1nc(-c2ccc(OCCCCC(=O)Nc3ccc(/C(N)=N/O)cc3)cc2)c(C(C)C)s1 [Compound 18, N-hydroxy-4-{5-[4-(5-isopropyl-2-methyl-1,3-thiazol-4-yl)phenoxy]pentanoylamino}benzamidine] | 106 ± 5 | 1.15 | 115 ± 3.0 ## % | 1.06
CCN(CC)CCc1sc(C)nc1-c1ccc(OCCCCCOc2ccc(/C(N)=N/O)cc2)cc1 [Compound 26, N-hydroxy-4-{5-[4-(5-(2-diethylaminoethyl)-2-methyl-1,3-thiazol-4-yl)phenoxy]pentoxy}benzamidine] | 102 ± 2.6 | 1.13 | 113 ± 2.7 # % | 1.02
CCc1nc(-c2ccc(OCCCCCOc3ccc(/C(N)=N/O)cc3)cc2)c(CC2CCCC2)s1 [Compound 4, N-hydroxy-4-{5-[4-(5-cyclopentylmethyl-2-ethyl-1,3-thiazol-4-yl)phenoxy]pentoxy}benzamidine] | 105 ± 1.9 | 1.12 | 112 ± 1.6 # % | 1.05
CC(C)c1sc(N(C)C)nc1-c1ccc(OCCCCCOc2ccc(/C(N)=N/O)cc2)cc1 [Compound 17, N-hydroxy-4-{5-[4-(5-isopropyl-2-dimethylamino-1,3-thiazol-4-yl)phenoxy]pentoxy}benzamidine] | 97 ± 1.3 | 1.13 | 113 ± 1.7 # % | 0.97
CC(C)c1nc(-c2ccc(OCCCCCOc3ccc(/C(N)=N/O)cc3)cc2)c(CCN2CCSCC2)s1 [Compound 27, N-hydroxy-4-{5-[4-(2-isopropyl-5-(2-(thiomorpholin-4-yl)ethyl)-1,3-thiazol-4-yl)phenoxy]pentoxy}benzamidine] | 98 ± 1.9 | 1.12 | 112 ± 0.9 ## % | 0.98
CCCCc1sc(N(C)CCN2CCOCC2)nc1-c1ccc(OCCCCCOc2ccc(/C(N)=N/O)cc2)cc1 [Compound 13, N-hydroxy-4-{5-[4-(5-butyl-2-(methyl(2-(4-morpholino)ethyl)amino)-1,3-thiazol-4-yl)phenoxy]pentoxy}benzamidine] | 103 ± 5.2 | 1.13 | 113 ± 2.1 # % | 1.03
C=Cc1sc(C)nc1-c1ccc(OCCCCCOc2ccc(/C(N)=N/O)cc2)cc1 [Compound 5, N-hydroxy-4-{5-[4-(5-vinyl-2-methyl-1,3-thiazol-4-yl)phenoxy]pentoxy}benzamidine] | 100 ± 3.7 | 1.10 | 110 ± 2.4 # % | 1.00
Cc1sc(N(C)Cc2cccnc2)nc1-c1ccc(OCCCCCOc2ccc(/C(N)=N/O)cc2)cc1 [Compound 9, N-hydroxy-4-{5-[4-(5-methyl-2-(methyl(pyridin-3-ylmethyl)amino)-1,3-thiazol-4-yl)phenoxy]pentoxy}benzamidine] | 108 ± 2.3 | 1.20 | 120 ± 2.1 ## % | 1.08
Cc1nc(-c2ccc(OCCCCCOc3ccc(/C(N)=N/O)cc3)cc2)c(CCNC(C)C)s1 [Compound 24, N-hydroxy-4-{5-[4-(5-(2-(isopropylamino)ethyl)-2-methyl-1,3-thiazol-4-yl)phenoxy]pentoxy}benzamidine] | 110 ± 4.4 | 1.18 | 118 ± 2.9 ## % | 1.10
Cc1nc(-c2ccc(OCCCCCOc3ccc(/C(N)=N/O)cc3)cc2)c(N(C)C)s1 [Compound 35, N-hydroxy-4-{5-[4-(5-dimethylamino-2-methyl-1,3-thiazol-4-yl)phenoxy]pentoxy}benzamidine] | 101 ± 2.3 | 1.12 | 112 ± 3.0 ## % | 1.01
Cc1nc(-c2ccc(OCCCCCOc3ccc(/C(N)=N/O)cc3)cc2)c(CCNCCCOC(C)C)s1 [Compound 25, N-hydroxy-4-{5-[4-(5-(2-(3-(isopropoxy)propylamino)ethyl)-2-methyl-1,3-thiazol-4-yl)phenoxy]pentoxy}benzamidine] | 101 ± 3.2 | 1.12 | 112 ± 1.5 # % | 1.01
Cc1nc(-c2ccc(OCCCCCOc3ccc(/C(N)=N/O)cc3)cc2)c(Cn2ccnc2)s1 [Compound 32, N-hydroxy-4-{5-[4-(5-(imidazol-1-ylmethyl)-2-methyl-1,3-thiazol-4-yl]phenoxy}pentoxy}benzamidine] | 97 ± 3.3 | 1.10 | 110 ± 2.4 # % | 0.97
Cc1nc(-c2ccc(OCCCCCOc3ccc(/C(N)=N/O)c(F)c3)cc2)c(C(C)C)s1 [Compound 20, N-hydroxy-2-fluoro-4-{5-[4-(5-isopropyl-2-methyl-1,3-thiazol-4-yl)phenoxy]pentoxy}benzamidine] | 106 ± 3.1 | 1.13 | 113 ± 1.0 ## % | 1.06
CCc1sc(N(C)Cc2ccccc2)nc1-c1ccc(OCCCCCOc2ccc(/C(N)=N/O)cc2)cc1 [Compound 10, N-hydroxy-4-{5-[4-(2-benzylmethylamino-5-ethyl-1,3-thiazol-4-yl)phenoxy]pentoxy}benzamidine] | 99 ± 2.5 | 1.11 | 111 ± 1.3 # % | 0.99
CN(C)c1nc(-c2ccc(OCCCCCOc3ccc(/C(N)=N/O)cc3)cc2)c(CCN2CCOCC2)s1 [Compound 29, N-hydroxy-4-{5-[4-(2-dimethylamino-5-(2-(morpholin-4-yl)ethyl)-1,3-thiazol-4-yl)phenoxy]pentoxy}benzamidine] | 102 ± 5.6 | 1.14 | 114 ± 2.6 ## % | 1.02
Cc1nc(-c2ccc(OCCCCCOc3ccc(/C(N)=N/O)cc3)cc2)c(CCCl)s1 [Compound 3, N-hydroxy-4-{5-[4-(5-(2-chloroethyl)-2-methyl-1,3-thiazol-4-yl)phenoxy]pentoxy}benzamidine] | 105 ± 3.1 | 1.12 | 112 ± 2.7 # % | 1.05
CCc1sc(C2CCCCC2)nc1-c1ccc(OCCCCOc2ccc(/C(N)=N/O)cc2)cc1 [Compound 21, N-hydroxy-4-{4-[4-(2-cyclohexyl-5-ethyl-1,3-thiazol-4-yl)phenoxy]butoxy}benzamidine] | 105 ± 2.5 | 1.11 | 111 ± 1.7 # % | 1.05
Cc1nc(-c2ccc(OCCCCCN(C)c3ccc(/C(N)=N/O)cc3)cc2)c(C(C)C)s1 [Compound 19, N-hydroxy-4-{5-[4-(5-isopropyl-2-methyl-1,3-thiazol-4-yl)phenoxy]pentylmethylamino}benzamidine] | 108 ± 2.7 | 1.19 | 119 ± 4.8 # % | 1.08
